# Test results as given in PubChem BioAssay AID1845213 (Molecular Pharmacology Branch, DTP, NCI, 2023).
# Tested on: NCI-H841 complex tumor spheroid viability
# Experiment: Anticancer human tumor NCI-H841 cell line growth inhibition;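 also: spheroids exposed to compounds for 7 days before readout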;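 as to viability, T/C: 100% = DMSO vehicle control wells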
# Conditions: for IC50: curve of first compound; for viability, T/C: stronger effect = lower value
# Source text: Multicellular complex tumor spheroid response to DNA repair inhibitors in combination with DNA-damaging drugs
# This study explores the anticancer activities of DNA-damaging drugs and inhibitors of DNA damage repair, both as single agents and in combinations. Complex tumor spheroids comprised of malignant cells, endothelial cells and mesenchymal stem cells served as an in vitro model for human solid tumors. This model system incorporates physiologically relevant features and patient-derived or established malignant cell lines with clinically relevant genetic alterations from many tumor types. Twenty-six patient-derived or established malignant cell lines were evaluated representing sarcoma, melanoma, small cell lung cancer (SCLC), non-small cell lung cancer (NSCLC), as well as bladder, ovarian and pancreatic cancers. The concentration ranges selected for each drug and investigational agent were based upon clinically achievable concentrations if the clinical Cmax of the agent was known.
# Compounds. The drugs and compounds olaparib (NSC753686), talazoparib (NSC767125), berzosertib (NSC777718), elimusertib (NSC800525), nedisertib (NSC802822), VX-984 (NSC792969), AZD-1390 (NSC803789), temozolomide (NSC362856), topotecan (NSC609699), trabectedin (NSC813783), staurosporine (NSC755774), and gemcitabine (NSC613327) were obtained from the National Cancer Institute (NCI) Developmental Therapeutics Program Chemical Repository. The FDA-approved anticancer drug set is available from the Developmental Therapeutics Program at https://dtp.cancer.gov/organization/dscb/obtaining/available_plates.htm. […] The stock solutions were prepared in dimethyl sulfoxide (DMSO, Sigma-Aldrich, St. Louis, MO, cat. D2650) at 400-fold the tested concentration and stored at -70 degrees C. Prior to their use, the stock solutions were diluted in fresh medium and the final DMSO concentration in the assay was 0.25% (v/v). All drugs and investigational agents were tested over a range starting from a high concentration at or near the clinical Cmax and decreasing in half-log increments. If the clinical Cmax for an agent had not been determined, the highest concentration tested was 10 microM.
# Cell Lines. The patient-derived cancer cell (PDC) lines: 156681-154-R-J1-PDC, 283228-195-R-J1-PDC, 287954-098-R-J1-PDC, 292921-168-R-J2-PDC, 349418-098-R-PDC, 425362-245-T-J1-PDC, 556581-035-R-J1-PDC, and BL0293-F563-PDC were received from the NCI Patient-Derived Models Repository (PDMR, https://pdmr.cancer.gov). The established cell lines HS-SY-2 (RRID:CVCL_8719), MPNST, and SYO-1 (RRID:CVCL_7146) were obtained from the Sloan Kettering Institute. The alveolar soft parts sarcoma cell line ASPS-1 (RRID:CVCL_S738) was established at the NCI and grown from internal seed stocks. The following established cell lines were purchased from the American Type Culture Collection (ATCC, Manassas, VA): G-401 (ATCC, cat. CRL-1441, RRID:CVCL_0270), SW982 (ATCC, cat. HTB-93, RRID:CVCL_1734), VA-ES-BJ (ATCC, cat. CRL-2138, RRID:CVCL_1785), NCI-H719 (ATCC, cat. CRL-5837, RRID:CVCL_1582), NCI-H196 (ATCC, cat. CRL-5823, RRID:CVCL_1509), NCI-H841 (ATCC, cat. CRL-5845, RRID:CVCL_1595), NCI-H1618 (ATCC, cat. CRL-5879, RRID:CVCL_1480), NCI-H1876 (ATCC, cat. CRL-5902, RRID:CVCL_1503), DMS 114 (ATCC, cat. CRL-2066; RRID:CVCL_1174), NCI-H211 (ATCC, cat. CRL-5824; RRID:CVCL_1529), and SW 1271 (ATCC, cat. CRL-2177, RRID:CVCL_1716). The small cell lung cancer cell line COR-L88 was purchased from Sigma-Aldrich (cat. 92031917-1VL, RRID:CVCL_1141). The non-small cell lung cancer cell lines NCI-H226 (RRID:CVCL_1544) and NCI-H322M (RRID:CVCL_1557) were established at the NCI and grown from internal seed stocks. Pooled donor human umbilical vein endothelial cells (HUVEC, Lonza, cat. CC-2519) and human mesenchymal stem cells (hMSC, Lonza, cat. PT-2501) were purchased from Lonza (Walkersville, MD).
# Cell Culture. All cells were maintained in an incubator at 37 degrees C and 5% CO2 with 95% humidity. […]
smiles,measurement,setting,value
Cc1cc(C)c(CNC(=O)c2cc(-c3ccc(CN4CCOCC4)cc3)cc3c2cnn3C2CCCC2)c(=O)[nH]1 + CC[C@@]1(O)C(=O)OCc2c1cc1n(c2=O)Cc2cc3c(CN(C)C)c(O)ccc3nc2-1,IC50,second compound 0.003 µM,5600 nM
same,IC50,second compound 0.00949 µM,713 nM
same,IC50,second compound 0.03 µM,< 31.6 nM
same,IC50,second compound 0.0949 µM,< 31.6 nM
same,IC50,second compound 0.3 µM,< 31.6 nM
same,"viability, T/C","second compound 0.003 µM, first compound 0.0316 µM",93.6%
same,"viability, T/C","second compound 0.003 µM, first compound 0.1 µM",94.4%
same,"viability, T/C","second compound 0.003 µM, first compound 0.316 µM",91.9%
same,"viability, T/C","second compound 0.003 µM, first compound 1 µM",83.5%
same,"viability, T/C","second compound 0.003 µM, first compound 3.16 µM",65.2%
same,"viability, T/C","second compound 0.003 µM, first compound 10 µM",34.7%
same,"viability, T/C","second compound 0.00949 µM, first compound 0.0316 µM",69.6%
same,"viability, T/C","second compound 0.00949 µM, first compound 0.1 µM",60.8%
same,"viability, T/C","second compound 0.00949 µM, first compound 0.316 µM",63.4%
same,"viability, T/C","second compound 0.00949 µM, first compound 1 µM",44.7%
same,"viability, T/C","second compound 0.00949 µM, first compound 3.16 µM",21.7%
same,"viability, T/C","second compound 0.00949 µM, first compound 10 µM",9.9%
same,"viability, T/C","second compound 0.03 µM, first compound 0.0316 µM",2.88%
same,"viability, T/C","second compound 0.03 µM, first compound 0.1 µM",2.59%
same,"viability, T/C","second compound 0.03 µM, first compound 0.316 µM",2.6%
same,"viability, T/C","second compound 0.03 µM, first compound 1 µM",1.45%
same,"viability, T/C","second compound 0.03 µM, first compound 3.16 µM",1.14%
same,"viability, T/C","second compound 0.03 µM, first compound 10 µM",1.49%
same,"viability, T/C","second compound 0.0949 µM, first compound 0.0316 µM",1.83%
same,"viability, T/C","second compound 0.0949 µM, first compound 0.1 µM",1.47%
same,"viability, T/C","second compound 0.0949 µM, first compound 0.316 µM",1.42%
same,"viability, T/C","second compound 0.0949 µM, first compound 1 µM",1.4%
same,"viability, T/C","second compound 0.0949 µM, first compound 3.16 µM",1.41%
same,"viability, T/C","second compound 0.0949 µM, first compound 10 µM",1.58%
same,"viability, T/C","second compound 0.3 µM, first compound 0.0316 µM",7.2%
same,"viability, T/C","second compound 0.3 µM, first compound 0.1 µM",1.62%
same,"viability, T/C","second compound 0.3 µM, first compound 0.316 µM",1.88%
same,"viability, T/C","second compound 0.3 µM, first compound 1 µM",1.53%
same,"viability, T/C","second compound 0.3 µM, first compound 3.16 µM",1.17%
same,"viability, T/C","second compound 0.3 µM, first compound 10 µM",4.17%
Cc1sc2c(c1C)C(c1ccc(Cl)cc1)=NC(CC(=O)Nc1ccc(O)cc1)c1nnc(C)n1-2 (stereo not given) + CC[C@@]1(O)C(=O)OCc2c1cc1n(c2=O)Cc2cc3c(CN(C)C)c(O)ccc3nc2-1,IC50,second compound 0.003 µM,152 nM
same,IC50,second compound 0.00949 µM,12.7 nM
same,IC50,second compound 0.03 µM,< 9.49 nM
same,IC50,second compound 0.0949 µM,< 9.49 nM
same,IC50,second compound 0.3 µM,< 9.49 nM
same,"viability, T/C","second compound 0.003 µM, first compound 0.00949 µM",88%
same,"viability, T/C","second compound 0.003 µM, first compound 0.03 µM",85%
same,"viability, T/C","second compound 0.003 µM, first compound 0.0949 µM",66.2%
same,"viability, T/C","second compound 0.003 µM, first compound 0.3 µM",26.5%
same,"viability, T/C","second compound 0.003 µM, first compound 0.949 µM",6.68%
same,"viability, T/C","second compound 0.003 µM, first compound 3 µM",1.61%
same,"viability, T/C","second compound 0.00949 µM, first compound 0.00949 µM",63.4%
same,"viability, T/C","second compound 0.00949 µM, first compound 0.03 µM",9.92%
same,"viability, T/C","second compound 0.00949 µM, first compound 0.0949 µM",27.9%
same,"viability, T/C","second compound 0.00949 µM, first compound 0.3 µM",4.81%
same,"viability, T/C","second compound 0.00949 µM, first compound 0.949 µM",1.04%
same,"viability, T/C","second compound 0.00949 µM, first compound 3 µM",0.47%
same,"viability, T/C","second compound 0.03 µM, first compound 0.00949 µM",1.92%
same,"viability, T/C","second compound 0.03 µM, first compound 0.03 µM",4.07%
same,"viability, T/C","second compound 0.03 µM, first compound 0.0949 µM",0.85%
same,"viability, T/C","second compound 0.03 µM, first compound 0.3 µM",0.58%
same,"viability, T/C","second compound 0.03 µM, first compound 0.949 µM",0.55%
same,"viability, T/C","second compound 0.03 µM, first compound 3 µM",0.5%
same,"viability, T/C","second compound 0.0949 µM, first compound 0.00949 µM",1.59%
same,"viability, T/C","second compound 0.0949 µM, first compound 0.03 µM",1.44%
same,"viability, T/C","second compound 0.0949 µM, first compound 0.0949 µM",0.98%
same,"viability, T/C","second compound 0.0949 µM, first compound 0.3 µM",0.78%
same,"viability, T/C","second compound 0.0949 µM, first compound 0.949 µM",0.62%
same,"viability, T/C","second compound 0.0949 µM, first compound 3 µM",5.05%
same,"viability, T/C","second compound 0.3 µM, first compound 0.00949 µM",1.48%
same,"viability, T/C","second compound 0.3 µM, first compound 0.03 µM",1.46%
same,"viability, T/C","second compound 0.3 µM, first compound 0.0949 µM",1.06%
same,"viability, T/C","second compound 0.3 µM, first compound 0.3 µM",0.57%
same,"viability, T/C","second compound 0.3 µM, first compound 0.949 µM",0.28%
same,"viability, T/C","second compound 0.3 µM, first compound 3 µM",0.2%
